In PubChem BioAssay AID2060600 (Molecular Pharmacology Branch, DTP, NCI, 2025):

Test system: 996289-038-R-J1-PDC complex spheroid viability
Assay: Anticancer human tumor 996289-038-R-J1-PDC patient-derived colon adenocarcinoma cell line growth inhibition [CLK]
Conditions: for IC50: curve of first compound; for viability, T/C: stronger effect = lower value
In short: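 Patient-derived tumor cells grown as complex spheroids with HUVEC endothelial cells and mesenchymal stem cells, treated with drug combinations. Concentrations descend in half-log steps from near clinical Cmax, or from 10 microM if Cmax unknown.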

[1] = second compound 0.0316 µM, first compound 0.0316 µM
[2] = second compound 0.0316 µM, first compound 0.1 µM
[3] = second compound 0.0316 µM, first compound 0.316 µM
[4] = second compound 0.0316 µM, first compound 1 µM
[5] = second compound 0.0316 µM, first compound 3.16 µM
[6] = second compound 0.0316 µM, first compound 10 µM
[7] = second compound 0.1 µM, first compound 0.0316 µM
[8] = second compound 0.1 µM, first compound 0.1 µM
[9] = second compound 0.1 µM, first compound 0.316 µM
[10] = second compound 0.1 µM, first compound 1 µM
[11] = second compound 0.1 µM, first compound 3.16 µM
[12] = second compound 0.1 µM, first compound 10 µM
[13] = second compound 0.316 µM, first compound 0.0316 µM
[14] = second compound 0.316 µM, first compound 0.1 µM
[15] = second compound 0.316 µM, first compound 0.316 µM
[16] = second compound 0.316 µM, first compound 1 µM
[17] = second compound 0.316 µM, first compound 3.16 µM
[18] = second compound 0.316 µM, first compound 10 µM
[19] = second compound 1 µM, first compound 0.0316 µM
[20] = second compound 1 µM, first compound 0.1 µM
[21] = second compound 1 µM, first compound 0.316 µM
[22] = second compound 1 µM, first compound 1 µM
[23] = second compound 1 µM, first compound 3.16 µM
[24] = second compound 1 µM, first compound 10 µM
[25] = second compound 3.16 µM, first compound 0.0316 µM
[26] = second compound 3.16 µM, first compound 0.1 µM
[27] = second compound 3.16 µM, first compound 0.316 µM
[28] = second compound 3.16 µM, first compound 1 µM
[29] = second compound 3.16 µM, first compound 3.16 µM
[30] = second compound 3.16 µM, first compound 10 µM
[31] = second compound 10 µM, first compound 0.0316 µM
[32] = second compound 10 µM, first compound 0.1 µM
[33] = second compound 10 µM, first compound 0.316 µM
[34] = second compound 10 µM, first compound 1 µM
[35] = second compound 10 µM, first compound 3.16 µM
[36] = second compound 10 µM, first compound 10 µM
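Further: spheroids exposed to the agents for 7 days before readout.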

SMILES: CC1(C)CCC(CN2CCN(c3ccc(C(=O)NS(=O)(=O)c4ccc(NCC5CCOCC5)c([N+](=O)[O-])c4)c(Oc4cnc5[nH]ccc5c4)c3)CC2)=C(c2ccc(Cl)cc2)C1 + CNC(=O)c1ccc(Nc2nc(OC3CCCC3)c3c(-c4ccc5nc(C)oc5c4)c[nH]c3n2)c(OC)c1
- IC50 (second compound 0.0316 µM): 9.12 µM
- IC50 (second compound 0.1 µM): 8.96 µM
- IC50 (second compound 0.316 µM): 7.56 µM
- IC50 (second compound 1 µM): 6.26 µM
- IC50 (second compound 3.16 µM): 5.76 µM
- IC50 (second compound 10 µM): 5.18 µM
- viability, T/C [1]: 128%
- viability, T/C [2]: 110%
- viability, T/C [3]: 115%
- viability, T/C [4]: 127%
- viability, T/C [5]: 139%
- viability, T/C [6]: 43.5%
- viability, T/C [7]: 125%
- viability, T/C [8]: 123%
- viability, T/C [9]: 138%
- viability, T/C [10]: 119%
- viability, T/C [11]: 134%
- viability, T/C [12]: 41.9%
- viability, T/C [13]: 80.2%
- viability, T/C [14]: 82.7%
- viability, T/C [15]: 88.7%
- viability, T/C [16]: 90.7%
- viability, T/C [17]: 103%
- viability, T/C [18]: 37.5%
- viability, T/C [19]: 67.2%
- viability, T/C [20]: 67.7%
- viability, T/C [21]: 74%
- viability, T/C [22]: 74.7%
- viability, T/C [23]: 100%
- viability, T/C [24]: 31.6%
- viability, T/C [25]: 65%
- viability, T/C [26]: 61.7%
- viability, T/C [27]: 67.1%
- viability, T/C [28]: 70.7%
- viability, T/C [29]: 84.1%
- viability, T/C [30]: 32%
- viability, T/C [31]: 61.5%
- viability, T/C [32]: 59.1%
- viability, T/C [33]: 61.3%
- viability, T/C [34]: 72.7%
- viability, T/C [35]: 81.3%
- viability, T/C [36]: 27%

SMILES: CC1COCCN1c1cc(C2(S(C)(=N)=O)CC2)nc(-c2ccnc3[nH]ccc23)n1 (stereo not drawn) + CNC(=O)c1ccc(Nc2nc(OC3CCCC3)c3c(-c4ccc5nc(C)oc5c4)c[nH]c3n2)c(OC)c1
- IC50 (second compound 0.0316 µM): > 10 µM
- IC50 (second compound 0.1 µM): > 10 µM
- IC50 (second compound 0.316 µM): > 10 µM
- IC50 (second compound 1 µM): 3.67 µM
- IC50 (second compound 3.16 µM): 2.84 µM
- IC50 (second compound 10 µM): 2.13 µM
- viability, T/C [1]: 116%
- viability, T/C [2]: 126%
- viability, T/C [3]: 118%
- viability, T/C [4]: 117%
- viability, T/C [5]: 122%
- viability, T/C [6]: 100%
- viability, T/C [7]: 129%
- viability, T/C [8]: 135%
- viability, T/C [9]: 129%
- viability, T/C [10]: 122%
- viability, T/C [11]: 121%
- viability, T/C [12]: 88.1%
- viability, T/C [13]: 84.8%
- viability, T/C [14]: 83%
- viability, T/C [15]: 79.4%
- viability, T/C [16]: 73.2%
- viability, T/C [17]: 73.8%
- viability, T/C [18]: 58.5%
- viability, T/C [19]: 70.3%
- viability, T/C [20]: 71.5%
- viability, T/C [21]: 68.8%
- viability, T/C [22]: 57.5%
- viability, T/C [23]: 54.2%
- viability, T/C [24]: 36.9%
- viability, T/C [25]: 68.5%
- viability, T/C [26]: 60.9%
- viability, T/C [27]: 55.8%
- viability, T/C [28]: 64%
- viability, T/C [29]: 46%
- viability, T/C [30]: 39.8%
- viability, T/C [31]: 59.3%
- viability, T/C [32]: 55.7%
- viability, T/C [33]: 57%
- viability, T/C [34]: 53.7%
- viability, T/C [35]: 48.1%
- viability, T/C [36]: 31%

SMILES: NC(=O)C(=Cn1cnc(-c2cc(C(F)(F)F)cc(C(F)(F)F)c2)n1)c1cncnc1 + CNC(=O)c1ccc(Nc2nc(OC3CCCC3)c3c(-c4ccc5nc(C)oc5c4)c[nH]c3n2)c(OC)c1
- IC50 (second compound 0.0316 µM): 0.101 µM
- IC50 (second compound 0.1 µM): 0.077 µM
- IC50 (second compound 0.316 µM): 0.0405 µM
- IC50 (second compound 1 µM): 0.013 µM
- IC50 (second compound 3.16 µM): < 0.00949 µM
- IC50 (second compound 10 µM): < 0.00949 µM
- viability, T/C (second compound 0.0316 µM, first compound 0.00949 µM): 98.9%
- viability, T/C (second compound 0.0316 µM, first compound 0.03 µM): 79.4%
- viability, T/C (second compound 0.0316 µM, first compound 0.0949 µM): 50.9%
- viability, T/C (second compound 0.0316 µM, first compound 0.3 µM): 31.2%
- viability, T/C (second compound 0.0316 µM, first compound 0.949 µM): 20%
- viability, T/C (second compound 0.0316 µM, first compound 3 µM): 19.5%
- viability, T/C (second compound 0.1 µM, first compound 0.00949 µM): 93.8%
- viability, T/C (second compound 0.1 µM, first compound 0.03 µM): 71.5%
- viability, T/C (second compound 0.1 µM, first compound 0.0949 µM): 45.8%
- viability, T/C (second compound 0.1 µM, first compound 0.3 µM): 27.6%
- viability, T/C (second compound 0.1 µM, first compound 0.949 µM): 17.7%
- viability, T/C (second compound 0.1 µM, first compound 3 µM): 19%
- viability, T/C (second compound 0.316 µM, first compound 0.00949 µM): 68.9%
- viability, T/C (second compound 0.316 µM, first compound 0.03 µM): 55.2%
- viability, T/C (second compound 0.316 µM, first compound 0.0949 µM): 33.8%
- viability, T/C (second compound 0.316 µM, first compound 0.3 µM): 15%
- viability, T/C (second compound 0.316 µM, first compound 0.949 µM): 13.4%
- viability, T/C (second compound 0.316 µM, first compound 3 µM): 13.8%
- viability, T/C (second compound 1 µM, first compound 0.00949 µM): 53.7%
- viability, T/C (second compound 1 µM, first compound 0.03 µM): 40.1%
- viability, T/C (second compound 1 µM, first compound 0.0949 µM): 19.5%
- viability, T/C (second compound 1 µM, first compound 0.3 µM): 8.6%
- viability, T/C (second compound 1 µM, first compound 0.949 µM): 8.98%
- viability, T/C (second compound 1 µM, first compound 3 µM): 8.12%
- viability, T/C (second compound 3.16 µM, first compound 0.00949 µM): 47.8%
- viability, T/C (second compound 3.16 µM, first compound 0.03 µM): 35.6%
- viability, T/C (second compound 3.16 µM, first compound 0.0949 µM): 15.5%
- viability, T/C (second compound 3.16 µM, first compound 0.3 µM): 7.76%
- viability, T/C (second compound 3.16 µM, first compound 0.949 µM): 6.08%
- viability, T/C (second compound 3.16 µM, first compound 3 µM): 5.36%
- viability, T/C (second compound 10 µM, first compound 0.00949 µM): 44.5%
- viability, T/C (second compound 10 µM, first compound 0.03 µM): 33.8%
- viability, T/C (second compound 10 µM, first compound 0.0949 µM): 12.8%
- viability, T/C (second compound 10 µM, first compound 0.3 µM): 8.08%
- viability, T/C (second compound 10 µM, first compound 0.949 µM): 5.49%
- viability, T/C (second compound 10 µM, first compound 3 µM): 4.93%

SMILES: Nc1ccccc1NC(=O)c1ccc(CNC(=O)OCc2cccnc2)cc1 + CNC(=O)c1ccc(Nc2nc(OC3CCCC3)c3c(-c4ccc5nc(C)oc5c4)c[nH]c3n2)c(OC)c1
- IC50 (second compound 0.0316 µM): 7.09 µM
- IC50 (second compound 0.1 µM): 6.91 µM
- IC50 (second compound 0.316 µM): 4.11 µM
- IC50 (second compound 1 µM): 1.7 µM
- IC50 (second compound 3.16 µM): 1.88 µM
- IC50 (second compound 10 µM): 1.84 µM
- viability, T/C [1]: 118%
- viability, T/C [2]: 103%
- viability, T/C [3]: 113%
- viability, T/C [4]: 91.8%
- viability, T/C [5]: 70.7%
- viability, T/C [6]: 41.3%
- viability, T/C [7]: 118%
- viability, T/C [8]: 110%
- viability, T/C [9]: 120%
- viability, T/C [10]: 97.9%
- viability, T/C [11]: 71%
- viability, T/C [12]: 40.2%
- viability, T/C [13]: 85.5%
- viability, T/C [14]: 82.9%
- viability, T/C [15]: 74.3%
- viability, T/C [16]: 75.5%
- viability, T/C [17]: 54%
- viability, T/C [18]: 31.3%
- viability, T/C [19]: 70.6%
- viability, T/C [20]: 70.7%
- viability, T/C [21]: 66.7%
- viability, T/C [22]: 59.9%
- viability, T/C [23]: 38.8%
- viability, T/C [24]: 12.5%
- viability, T/C [25]: 63.8%
- viability, T/C [26]: 66.1%
- viability, T/C [27]: 63.8%
- viability, T/C [28]: 62.2%
- viability, T/C [29]: 40.1%
- viability, T/C [30]: 8.12%
- viability, T/C [31]: 60.8%
- viability, T/C [32]: 63.3%
- viability, T/C [33]: 57.2%
- viability, T/C [34]: 62.6%
- viability, T/C [35]: 40.3%
- viability, T/C [36]: 7.43%
